Source: US7300939B2, “Substituted 1-propiolylpiperazine compounds, their preparation and use” (Gruenenthal GmbH, priority 2005, dated 2007)

Target: T1, mGluR5 receptor (Sus scrofa, UniProt I3LUI7)
T1 construct: from tissue; host or cells: pig brain halves without medulla, cerebellum and pons
Assay: [3H]-MPEP binding in the mGluR5 receptor binding assay (pig brain homogenate)
Conditions: for IC50: Table II, unit inferred; for mGluR5-receptor (% inhibition 10 μM) in pigs: pig brain homogenate, 5 nM [3H]-MPEP
Experimental: I. Method the Determination of the Inhibition of the [^3H]-MPEP Binding in the mGluR5 Receptor Binding Assay
Pig brain homogenate is prepared by homogenization (Polytron PT 3000, Kinematica AG, 10,000 revolutions per minute 90 seconds) of pig brain halves without medulla, cerebellum and pons in a buffer solution having a pH of 8.0 (30 mM of hepes, Sigma, order no. H3375+1 tablet of Complete to 100 ml, Roche Diagnostics, order no. 1836145) in a ratio of 1:20 (brain weight/volume) and differential centrifugation at 900×g and 40,000×g. In each case 450 μg of protein from brain homogenate are incubated with 5 nM [^3H]-MPEP (Tocris, order no. R1212) (MPEP=2-methyl-6-(3-methoxyphenyl)ethynylpyridine) and the compounds to be investigated (10 μM in the test) in a buffer solution (as above) in 250 μl incubation batches in 96-well microtiter plates at room temperature 60 min.
Thereafter, the batches are filtered with the aid of a Brandel cell harvester (Brandel, Robotic 9600 model) onto Unifilter plates with glass fiber filter mats (Perkin Elmer, order no. 6005177) and then rinsed with buffer solution (as above) 3 times with 250 μl per sample each time. The filter plates are then dried 60 min at 55° C. 30 μl Ultima Gold™ scintillator (Packard BioScience, order no. 6013159) are subsequently added per well and, after 3 hours, the samples are measured on a β-counter (Mikrobeta, Perkin Elmer). The non-specific binding is determined by addition of 10 μM of MPEP (Tocris, order no. 1212).

T1 sequence (I3LUI7 19-1212): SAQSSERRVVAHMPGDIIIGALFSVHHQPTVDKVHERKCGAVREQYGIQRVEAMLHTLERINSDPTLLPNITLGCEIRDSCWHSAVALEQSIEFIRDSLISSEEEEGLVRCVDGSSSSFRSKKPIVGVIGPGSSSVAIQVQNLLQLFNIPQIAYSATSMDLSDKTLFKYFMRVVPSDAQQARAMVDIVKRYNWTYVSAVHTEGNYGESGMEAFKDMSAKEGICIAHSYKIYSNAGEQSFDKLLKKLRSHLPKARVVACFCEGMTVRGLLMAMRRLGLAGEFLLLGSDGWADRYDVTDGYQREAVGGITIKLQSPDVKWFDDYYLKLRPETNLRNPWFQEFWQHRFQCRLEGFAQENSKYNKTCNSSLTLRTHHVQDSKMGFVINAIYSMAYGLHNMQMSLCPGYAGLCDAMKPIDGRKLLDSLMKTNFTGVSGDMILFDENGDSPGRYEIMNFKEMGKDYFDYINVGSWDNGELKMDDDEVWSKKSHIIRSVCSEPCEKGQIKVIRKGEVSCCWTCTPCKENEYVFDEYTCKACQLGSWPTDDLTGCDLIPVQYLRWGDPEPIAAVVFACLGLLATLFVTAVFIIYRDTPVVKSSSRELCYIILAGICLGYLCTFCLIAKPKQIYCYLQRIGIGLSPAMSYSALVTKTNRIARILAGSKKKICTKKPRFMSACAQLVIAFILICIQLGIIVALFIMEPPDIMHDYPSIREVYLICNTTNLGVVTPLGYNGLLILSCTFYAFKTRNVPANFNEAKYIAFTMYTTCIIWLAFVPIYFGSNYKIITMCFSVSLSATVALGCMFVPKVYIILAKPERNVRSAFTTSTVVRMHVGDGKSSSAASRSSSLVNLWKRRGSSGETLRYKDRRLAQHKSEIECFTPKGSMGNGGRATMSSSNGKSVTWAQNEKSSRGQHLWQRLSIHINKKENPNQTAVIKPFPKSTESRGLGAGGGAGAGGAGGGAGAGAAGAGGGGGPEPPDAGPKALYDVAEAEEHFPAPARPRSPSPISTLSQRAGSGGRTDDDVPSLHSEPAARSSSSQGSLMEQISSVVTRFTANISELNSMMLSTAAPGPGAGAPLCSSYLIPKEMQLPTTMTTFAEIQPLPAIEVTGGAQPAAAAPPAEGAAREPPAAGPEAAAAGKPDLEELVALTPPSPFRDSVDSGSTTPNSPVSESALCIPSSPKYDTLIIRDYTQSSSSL

Structure (SMILES) | IC50 [µM] | mGluR5-receptor (% inhibition 10 μM) in pigs [%]
Cc1csc(C#CC(=O)N2CCN(c3nccs3)CC2)c1 [AAA00118, 4-(Thiazol-2-yl)-1-(3-(4-methylthiophen-2-yl)propiolyl)piperazine] | 0.093 | –
CC1CN(c2nccs2)CCN1C(=O)C#Cc1cccc(Cl)c1 (stereo not shown) [AAA00119, 2-Methyl-4-(thiazol-2-yl)-1-(3-(3-chlorophenyl)propiolyl)piperazine] | 0.009 | –
CC(C)(C)C1CN(c2nccs2)CCN1C(=O)C#Cc1ccccc1 (stereo not shown) [AAA00121, 2-tert-Butyl-4-(thiazol-2-yl)-1-(3-phenylpropiolyl)piperazine] | 0.11 | –
CC1CN(c2nccs2)CCN1C(=O)C#Cc1cccc(C#N)c1 (stereo not shown) [AAA00123, 2-Methyl-4-(thiazol-2-yl)-1-(3-(3-cyanophenyl)propiolyl)piperazine] | 0.019 | –
O=C(C#Cc1ccccc1F)N1CCN(c2nc(-c3ccccc3)ns2)CC1 [CCC3, 4-(3-Phenyl-1,2,4-thiadiazol-5-yl)-1-(3-(2-fluorophenyl)propiolyl)piperazine] | – | 28
O=C(C#Cc1cccc(F)c1)N1CCN(c2nc(-c3ccccc3)ns2)CC1 [CCC4, 4-(3-Phenyl-1,2,4-thiadiazol-5-yl)-1-(3-(3-fluorophenyl)propiolyl)piperazine] | – | 59
O=C(C#Cc1ccc(F)cc1)N1CCN(c2nc(-c3ccccc3)ns2)CC1 [CCC5, 4-(3-Phenyl-1,2,4-thiadiazol-5-yl)-1-(3-(4-fluorophenyl)propiolyl)piperazine] | – | 25
Cc1ccccc1C#CC(=O)N1CCN(c2nc(-c3ccc(F)cc3)ns2)CC1 [CCC8, 4-(3-(4-Fluorophenyl)-1,2,4-thiadiazol-5-yl)-1-(3-(tol-2-yl)propiolyl)piperazine] | – | 25
CC(C)(C)c1nsc(N2CCN(C(=O)C#Cc3cccs3)CC2)n1 [CCC16, 4-(3-tert-Butyl-1,2,4-thiadiazol-5-yl)-1-(3-(thiophen-2-yl)propiolyl)piperazine] | – | 33
O=C(C#Cc1ccc(F)cc1F)N1CCN(c2nccs2)CC1 [CCC22, 4-(Thiazol-2-yl)-1-(3-(2,4-difluorophenyl)propiolyl)piperazine] | 10.5 | –
COc1ccc(Br)c(C#CC(=O)N2CCN(c3nccs3)CC2)c1 [CCC23, 4-(Thiazol-2-yl)-1-(3-(2-bromo-5-methoxyphenyl)propiolyl)piperazine] | – | 30
Cc1cccc(C#CC(=O)N2CCN(c3nc(C)cs3)CC2)c1 [CCC31, 4-(4-Methylthiazol-2-yl)-1-(3-(tol-3-yl)propiolyl)piperazine] | – | 93
Cc1ccc(C#CC(=O)N2CCN(c3ncc(C)s3)CC2)cc1 [CCC33, 4-(5-Methylthiazol-2-yl)-1-(3-(tol-4-yl)propiolyl)piperazine] | – | 43
CCOC(=O)c1cccc(C#CC(=O)N2CCN(c3nccs3)CC2)c1 [Example AAA3, 4-(Thiazol-2-yl)-1-(3-(3-carboxyphenyl)propiolyl)piperazine ethyl ester] | – | 40
O=C(C#Cc1ccccc1O)N1CCN(c2nccs2)CC1 [Example AAA4, 4-(Thiazol-2-yl)-1-(3-(2-hydroxyphenyl)propiolyl)piperazine] | 0.45 | –
O=C(C#Cc1ccc(O)cc1)N1CCN(c2nccs2)CC1 [Example AAA5, 4-(Thiazol-2-yl)-1-(3-(4-hydroxyphenyl)propiolyl)piperazine] | – | 35
Nc1ccccc1C#CC(=O)N1CCN(c2nccs2)CC1 [Example AAA6, 4-(Thiazol-2-yl)-1-(3-(2-aminophenyl)propiolyl)piperazine] | – | 54
Nc1cccc(C#CC(=O)N2CCN(c3nccs3)CC2)c1 [Example AAA7, 4-(Thiazol-2-yl)-1-(3-(3-aminophenyl)propiolyl)piperazine] | – | 91
Nc1ccc(C#CC(=O)N2CCN(c3nccs3)CC2)cc1 [Example AAA8, 4-(Thiazol-2-yl)-1-(3-(4-aminophenyl)propiolyl)piperazine] | – | 65
O=C(C#Cc1ccc2[nH]ccc2c1)N1CCN(c2nccs2)CC1 [Example AAA9, 4-(Thiazol-2-yl)-1-(3-(indol-5-yl)propiolyl)piperazine] | 0.7 | –
O=C(C#Cc1cccs1)N1CCN(c2nccs2)CC1 [Example AAA10, 4-(Thiazol-2-yl)-1-(3-(2-thienyl)propiolyl)piperazine] | 0.98 | –
O=C(C#Cc1ccsc1)N1CCN(c2nccs2)CC1 [Example AAA11, 4-(Thiazol-2-yl)-1-(3-(3-thienyl)propiolyl)piperazine] | – | 52

Structure (SMILES) | IC50 [µM] | mGluR5-receptor (% inhibition 10 μM) in pigs [%]
COc1ccccc1C#CC(=O)N1CCN(c2nccs2)CC1 [Example AAA12, 4-(Thiazol-2-yl)-1-(3-(2-methoxyphenyl)propiolyl)piperazine] | – | 34
COc1cccc(C#CC(=O)N2CCN(c3nccs3)CC2)c1 [Example AAA13, 4-(Thiazol-2-yl)-1-(3-(3-methoxyphenyl)propiolyl)piperazine] | – | 87
COc1ccc(C#CC(=O)N2CCN(c3nccs3)CC2)cc1 [Example AAA14, 4-(Thiazol-2-yl)-1-(3-(4-methoxyphenyl)propiolyl)piperazine] | – | 34
N#Cc1ccccc1C#CC(=O)N1CCN(c2nccs2)CC1 [Example AAA15, 4-(Thiazol-2-yl)-1-(3-(2-cyanophenyl)propiolyl)piperazine] | – | 54
N#Cc1cccc(C#CC(=O)N2CCN(c3nccs3)CC2)c1 [Example AAA16, 4-(Thiazol-2-yl)-1-(3-(3-cyanophenyl)propiolyl)piperazine] | – | 93
O=C(C#Cc1ccccc1F)N1CCN(c2nccs2)CC1 [Example AAA21, 4-(Thiazol-2-yl)-1-(3-(2-fluorophenyl)propiolyl)piperazine] | 0.83 | –
O=C(C#Cc1cccc(F)c1)N1CCN(c2nccs2)CC1 [Example AAA22, 4-(Thiazol-2-yl)-1-(3-(3-fluorophenyl)propiolyl)piperazine] | – | 86
O=C(C#Cc1ccccc1Cl)N1CCN(c2nccs2)CC1 [Example AAA23, 4-(Thiazol-2-yl)-1-(3-(2-chlorophenyl)propiolyl)piperazine] | – | 70
O=C(C#Cc1cccc([N+](=O)[O-])c1)N1CCN(c2nccs2)CC1 [Example AAA28, 4-(Thiazol-2-yl)-1-(3-(3-nitrophenyl)propiolyl)piperazine] | – | 82
O=Cc1cccc(C#CC(=O)N2CCN(c3nccs3)CC2)c1 [Example AAA30, 4-(Thiazol-2-yl)-1-(3-(3-formylphenyl)propiolyl)piperazine] | – | 91
C=Cc1cccc(C#CC(=O)N2CCN(c3nccs3)CC2)c1 [Example AAA31, 4-(Thiazol-2-yl)-1-(3-(3-ethenylphenyl)propiolyl)piperazine] | 0.038 | –
O=C(C#Cc1ccccn1)N1CCN(c2nccs2)CC1 [Example AAA32, 4-(Thiazol-2-yl)-1-(3-pyrid-2-ylpropiolyl)piperazine] | – | 57
O=C(C#Cc1cccnc1)N1CCN(c2nccs2)CC1 [Example AAA33, 4-(Thiazol-2-yl)-1-(3-pyrid-3-ylpropiolyl)piperazine] | – | 50
O=C(C#Cc1ccncc1)N1CCN(c2nccs2)CC1 [Example AAA34, 4-(Thiazol-2-yl)-1-(3-pyrid-4-ylpropiolyl)piperazine] | – | 71
CC(C)c1cccc(C#CC(=O)N2CCN(c3nccs3)CC2)c1 [Example AAA36, 4-(Thiazol-2-yl)-1-(3-(3-isopropylphenyl)propiolyl)piperazine] | – | 40
O=C(C#Cc1cccc(-c2ccccc2)c1)N1CCN(c2nccs2)CC1 [Example AAA37, 4-(Thiazol-2-yl)-1-(3-biphenyl-3-ylpropiolyl)piperazine] | – | 45
O=C(C#Cc1ccc2ccccc2c1)N1CCN(c2nccs2)CC1 [Example AAA38, 4-(Thiazol-2-yl)-1-(3-naphth-2-ylpropiolyl)piperazine] | – | 82
Cn1ccc2cc(C#CC(=O)N3CCN(c4nccs4)CC3)ccc21 [Example AAA39, 4-(Thiazol-2-yl)-1-(3-(1-methyl-indol-5-yl)propiolyl)piperazine] | – | 74
CSc1cccc(C#CC(=O)N2CCN(c3nccs3)CC2)c1 [Example AAA40, 4-(Thiazol-2-yl)-1-(3-(3-methylmercaptophenyl)propiolyl)piperazine] | – | 80
N#Cc1cc(C#CC(=O)N2CCN(c3nccs3)CC2)ccc1F [Example AAA41, 4-(Thiazol-2-yl)-1-(3-(3-cyano-4-fluorophenyl)propiolyl)piperazine] | – | 78
COCc1cccc(C#CC(=O)N2CCN(c3nccs3)CC2)c1 [Example AAA42, 4-(Thiazol-2-yl)-1-(3-(3-methoxymethylphenyl)propiolyl)piperazine] | – | 88
